The results in this text go back to patent US8404713B2, “Quinolinone derivatives as PARP inhibitors” (Janssen Pharmaceutica NV, priority 2007, dated 2013).

The target of one experiment is T1, TANK-2 enzyme (Homo sapiens, UniProt Q9H2K2).
T1 construct: made in house
T1 sequence (Q9H2K2 1-1166): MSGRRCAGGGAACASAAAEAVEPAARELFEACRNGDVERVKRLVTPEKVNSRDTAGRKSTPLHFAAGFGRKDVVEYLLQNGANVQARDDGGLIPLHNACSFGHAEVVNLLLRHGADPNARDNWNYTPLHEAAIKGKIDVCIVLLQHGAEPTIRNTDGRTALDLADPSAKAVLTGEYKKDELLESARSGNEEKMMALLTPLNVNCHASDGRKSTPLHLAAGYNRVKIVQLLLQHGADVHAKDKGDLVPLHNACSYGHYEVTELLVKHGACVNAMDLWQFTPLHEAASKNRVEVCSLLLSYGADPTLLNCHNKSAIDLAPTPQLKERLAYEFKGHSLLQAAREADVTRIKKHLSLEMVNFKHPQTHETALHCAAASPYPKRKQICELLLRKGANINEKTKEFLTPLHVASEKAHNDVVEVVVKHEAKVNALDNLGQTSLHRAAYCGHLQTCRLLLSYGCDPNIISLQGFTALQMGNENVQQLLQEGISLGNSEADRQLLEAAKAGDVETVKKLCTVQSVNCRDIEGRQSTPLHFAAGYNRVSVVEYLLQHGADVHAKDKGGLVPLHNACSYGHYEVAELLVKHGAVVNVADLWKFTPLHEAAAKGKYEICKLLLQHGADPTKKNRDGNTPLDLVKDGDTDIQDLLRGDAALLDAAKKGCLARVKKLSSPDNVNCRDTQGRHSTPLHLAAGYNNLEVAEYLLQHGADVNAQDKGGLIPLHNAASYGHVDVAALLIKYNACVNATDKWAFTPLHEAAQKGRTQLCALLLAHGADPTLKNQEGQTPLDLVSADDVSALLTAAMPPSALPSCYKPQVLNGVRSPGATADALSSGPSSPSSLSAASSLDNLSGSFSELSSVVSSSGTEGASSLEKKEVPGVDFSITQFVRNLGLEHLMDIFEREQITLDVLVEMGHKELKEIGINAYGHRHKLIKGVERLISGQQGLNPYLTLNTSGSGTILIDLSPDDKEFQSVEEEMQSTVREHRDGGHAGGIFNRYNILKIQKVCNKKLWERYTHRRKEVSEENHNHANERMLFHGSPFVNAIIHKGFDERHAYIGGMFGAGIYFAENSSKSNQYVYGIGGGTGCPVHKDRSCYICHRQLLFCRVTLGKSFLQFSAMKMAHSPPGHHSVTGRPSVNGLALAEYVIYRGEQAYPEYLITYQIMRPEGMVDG
As to the kind of experiment: In vitro scintillation proximity assay (SPA) for TANK-2 inhibitory activity. The experiment is classed as biochemical. Particulars: auto-poly(ADP-ribosyl)ation, Ni flash plates; 96-well results if available, otherwise 384-well; tested between 10^-5 M and 3x10^-8 M; read-out: in vitro SPA assay TANK-2 pIC50 (converted). How it is done: C.2. In Vitro Scintillation Proximity Assay (SPA) for TANK-2 Inhibitory Activity
Compounds of the present invention were tested in an in vitro assay based on SPA technology with Ni Flash plates (96 or 384 well).
In principle, the assay relies upon SPA technology for the detection of auto-poly(ADP-ribosyl)ation of TANK-2 protein using [^3H]-nicotinamide adenine dinucleotide ([^3H]-NAD^+) as ADP-ribosyl donor.
A stock solution of 100 nM [^3H]-NAD^+/NAD (0.1 mCi/ml, supplier: Perkin Elmer) and 0.25 mM NAD (Sigma) was made in assay buffer (60 mM Tris/HCl, pH 7.4; 0.9 mM DTT; 6 mM MgCl2). The TANK-2 enzyme was produced as described in EP1238063. 60 μl of assay buffer, together with 1 μl of compound in DMSO, 20 μl of [^3H]-NAD^+/NAD and 20 μl of TANK-2 enzyme (final concentration 8 μg/ml) was added per well into a 96-well Ni-coated flash plate (Perkin Elmer). After incubation of the mixture for 120 min. at room temperature, the reaction was terminated by adding 60 μl of stopsolution (42.6 mg NAD in 6 ml H2O). The plates were covered with a plate sealer and placed in a TopCountNX™ (Packard) for scintillation counting. Values were expressed as counts per minute (cpm). For each experiment, controls (containing TANK-2 enzyme and DMSO without compound), a blank incubation (containing DMSO but no TANK-2 enzyme or compound) and samples (containing TANK-2 enzyme and compound dissolved in DMSO) were run in parallel. All compounds tested were dissolved and eventually further diluted in DMSO. […] In each test, the blank value was subtracted from both the control and the sample values. The control sample represented maximal TANK-2 enzyme activity. For each sample, the amount of cpm was expressed as a percentage of the mean cpm value of the controls. When appropriate, IC50-values (concentration of the drug, needed to reduce the TANK-2 enzyme activity to 50% of the control) were computed using linear interpolation between the experimental points just above and below the 50% level. Herein the effects of test compounds are expressed as pIC50 (the negative log value of the IC50-value). As reference compounds, 3-aminobenzamide and 4-amino-1,8-naphtalimide were included to validate the SPA assay. Herein the assay was described using 96-well plates. In the assay using 384-well plates the same final concentrations were used and volumes were adapted.
For orientation: In a scintillation proximity assay essentially only radioactivity close to the scintillant gives light.

Another experiment concerns the target T2, Human PARP-1 enzyme (Homo sapiens, UniProt P09874).
T2 construct: purchased Trevigen
In words: In vitro scintillation proximity assay (SPA) for PARP-1 inhibitory activity. The experiment is classed as biochemical. To be noted: nicked DNA activated PARP-1, [3H]-NAD+, biotinylated histones; tested between 10^-5 M and 3x10^-9 M; read-out: in vitro SPA assay PARP-1 pIC50 (converted). Here is the method: C.1. In Vitro Scintillation Proximity Assay (SPA) for PARP-1 Inhibitory Activity
Compounds of the present invention were tested in an in vitro assay based on SPA technology (proprietary to GE healthcare).
In principle, the assay relies upon the well established SPA technology for the detection of poly(ADP-ribosyl)ation of biotinylated target proteins, i.e histones. This ribosylation is induced using nicked DNA activated PARP-1 enzyme and [^3H]-nicotinamide adenine dinucleotide ([^3H]-NAD^+) as ADP-ribosyl donor.
Histones (type II-A, supplier: Sigma) were biotinylated using the biotinylation kit of Amersham and stored aliquoted at −20° C. A stock solution of 100 mg/ml SPA poly(vinyl toluene) (PVT) beads (supplier: Amersham) was made in PBS. A stock solution of 61.6 nM [^3H]-NAD^+ was made by adding [^3H]-NAD^+ (0.1 mCi/ml, supplier: Perkin Elmer) to incubation buffer (50 mM Tris/HCl, pH 8; 0.2 mM DTT; 4 mM MgCl2). A solution of 4 mM NAD^+ (supplier: Sigma) was made. Human PARP-1 enzyme was obtained from Trevigen. Biotinylated histones and PVT-SPA beads were mixed and pre-incubated for 30 min. at room temperature. PARP-1 enzyme (concentration was lot dependent) was mixed with the nicked DNA and the mixture was pre-incubated for 30 min. at 4° C. Equal parts of this histones/PVT-SPA beads solution and PARP-1 enzyme/DNA solution were mixed and 75 μl of this mixture together with 1 μl of compound in DMSO and 25 μl of [^3H]-NAD^+ was added per well into a 96-well microtiterplate. The final concentrations in the incubation mixture were 2 μg/ml for the biotinylated histones, 2 mg/ml for the PVT-SPA beads, 0.25 μg/ml for the nicked DNA and between 0.1-0.2 μg/ml for the PARP-1 enzyme. After incubation of the mixture for 20 min. at room temperature, the reaction was terminated by adding 100 μl of 4 mM NAD^+ in water (final concentration 2 mM) and plates were mixed. The beads were sedimented by centrifugation (10 min, 800 rpm). and plates transferred to a TopCountNXT™ (Packard) for scintillation counting, values were expressed as counts per minute (cpm). For each experiment, controls (containing PARP-1 enzyme and DMSO without compound), a blank incubation (containing DMSO but no PARP-1 enzyme, no DNA or compound) and samples (containing PARP-1 enzyme, DNA and compound dissolved in DMSO) were run in parallel. All compounds tested were dissolved and eventually further diluted in DMSO. A dose-response curve was made wherein the compounds were tested at concentrations between 10^−5M and 3×10^−9M. In each test, the blank value was subtracted from both the control and the sample values. The control sample represented maximal PARP-1 enzyme activity. For each sample, the amount of cpm was expressed as a percentage of the mean cpm value of the controls. When appropriate, IC50-values (concentration of the drug, needed to reduce the PARP-1 enzyme activity to 50% of the control) were computed using linear interpolation between the experimental points just above and below the 50% level. Herein the effects of test compounds are expressed as pIC50 (the negative log value of the IC50-value). As a reference compound, 4-amino-1,8-naphthalimide was included to validate the SPA assay.

T2 sequence (P09874 whole entry): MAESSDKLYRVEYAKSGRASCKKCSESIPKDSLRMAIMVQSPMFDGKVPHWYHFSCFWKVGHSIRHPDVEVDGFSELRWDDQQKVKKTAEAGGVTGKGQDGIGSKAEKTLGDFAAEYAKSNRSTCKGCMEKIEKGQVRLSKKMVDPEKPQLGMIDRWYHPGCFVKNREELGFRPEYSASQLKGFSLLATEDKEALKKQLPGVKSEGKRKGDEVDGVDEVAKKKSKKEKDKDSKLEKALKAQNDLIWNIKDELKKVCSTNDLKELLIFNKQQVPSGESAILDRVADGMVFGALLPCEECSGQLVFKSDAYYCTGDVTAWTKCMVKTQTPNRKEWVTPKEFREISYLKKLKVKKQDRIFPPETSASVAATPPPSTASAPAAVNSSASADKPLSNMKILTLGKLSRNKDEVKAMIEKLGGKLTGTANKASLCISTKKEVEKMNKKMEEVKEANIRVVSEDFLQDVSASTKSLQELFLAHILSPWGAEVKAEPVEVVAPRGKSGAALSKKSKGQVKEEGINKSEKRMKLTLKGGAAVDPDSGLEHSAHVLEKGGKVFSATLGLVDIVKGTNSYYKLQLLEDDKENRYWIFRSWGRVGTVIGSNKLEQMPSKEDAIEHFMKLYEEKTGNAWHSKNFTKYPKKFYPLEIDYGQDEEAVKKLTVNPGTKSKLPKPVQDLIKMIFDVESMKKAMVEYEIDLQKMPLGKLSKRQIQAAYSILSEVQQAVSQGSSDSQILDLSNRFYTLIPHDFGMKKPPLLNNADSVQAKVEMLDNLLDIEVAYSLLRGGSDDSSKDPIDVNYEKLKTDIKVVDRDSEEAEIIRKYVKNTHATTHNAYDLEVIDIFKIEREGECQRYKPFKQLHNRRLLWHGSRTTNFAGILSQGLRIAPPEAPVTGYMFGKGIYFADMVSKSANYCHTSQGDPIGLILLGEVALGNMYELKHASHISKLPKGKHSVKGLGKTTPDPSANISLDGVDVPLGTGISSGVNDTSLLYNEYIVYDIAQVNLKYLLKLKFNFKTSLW

Take `COc1ccccc1N1CCN(C(c2ccc3cc(C)c(=O)[nH]c3c2)C2CCCCC2)CC1` (stereo not shown) [Compound 72]: the IC50 on TANK-2 enzyme is 933 nM; at Human PARP-1 enzyme, ≥ 10000 nM.
As to `CCc1cc2ccc(CN3CCN(c4ncccn4)CC3)cc2[nH]c1=O` [Compound 30], the figures for the IC50 at TANK-2 enzyme and on Human PARP-1 enzyme were 188 nM and 14.3 nM, respectively.
Take `Cc1cc2ccc(C(C)N3CCN(c4cccc(Cl)c4)CC3)cc2[nH]c1=O` (stereo not shown) [Compound 58]: the IC50 at TANK-2 enzyme is 2320 nM; at Human PARP-1 enzyme it was 95.9 nM.
In the same order, the values of `Cc1cc2ccc(C(C)N3CCN(C4CCCCC4)CC3)cc2[nH]c1=O` (stereo not shown) [Compound 54] are > 10000 nM and 61.4 nM.
On to `CCc1cc2ccc(CN3CCN(c4ccc(Cl)c(Cl)c4)CC3)cc2[nH]c1=O` [Compound 43], for which the results for the IC50 at TANK-2 enzyme and at Human PARP-1 enzyme were 1720 nM and 2.58 nM, respectively.
As for `CCc1cc2ccc(CN3CCN(c4ccc(C(F)(F)F)cn4)CC3)cc2[nH]c1=O` [Compound 22], the IC50 was 368 nM on TANK-2 enzyme and 1.21 nM at Human PARP-1 enzyme.
In the same order, the values of `Cc1cc2ccc(C(C3CCCCC3)N3CCC(c4ccccc4)CC3)cc2[nH]c1=O` (stereo not shown) [Compound 65] are > 10000 nM and 4070 nM.
In the same order, the values of `CCc1cc2ccc(CNCc3ccncc3)cc2[nH]c1=O` [Compound 47] are 144 nM and 124 nM.
For `CCc1cc2ccc(CNCCCc3ccccc3)cc2[nH]c1=O` [Compound 46], the figures for the IC50 at TANK-2 enzyme and at Human PARP-1 enzyme were 5380 nM and 9.48 nM, respectively.
Take `CCc1cc2ccc(CN3CCN(c4ccc(C)c(C)c4)CC3)cc2[nH]c1=O` [Compound 40]: the results for the IC50 on TANK-2 enzyme and on Human PARP-1 enzyme were 649 nM and 25.6 nM, respectively.
Turning to `CCc1cc2ccc(C(CO)N3CCN(c4ncccn4)CC3)cc2[nH]c1=O` (stereo not shown) [Compound 33], the IC50 at TANK-2 enzyme is 780 nM; on Human PARP-1 enzyme it was 84.7 nM.
Consider `Cc1cc2ccc(C(C3CCCCC3)N3CCN(c4ccc(C#N)cn4)CC3)cc2[nH]c1=O` (stereo not shown) [Compound 70], for which the IC50 on TANK-2 enzyme is 1910 nM; at Human PARP-1 enzyme, 275 nM.
As to `CCc1cc2ccc(CN3CCN(c4ncc(C(=O)NCCO)cn4)CC3)cc2[nH]c1=O` [Compound 62], the results for the IC50 at TANK-2 enzyme and at Human PARP-1 enzyme were 33 nM and 8.95 nM, respectively.
For the molecule `Cc1cc2ccc(C(C3CCCCC3)N3CC=C(c4ccccc4)CC3)cc2[nH]c1=O` (stereo not shown) [Compound 73], the IC50 on TANK-2 enzyme is 646 nM; at Human PARP-1 enzyme it was 1290 nM.
In the same order, the values of `CCc1cc2ccc(CN3CCN(CCc4ccccc4)CC3)cc2[nH]c1=O` [Compound 44] are 2190 nM and 6.9 nM.
As for `CCc1cc2ccc(CN3CCN(c4ccc(OC)c(OC)c4)CC3)cc2[nH]c1=O` [Compound 41], the results for the IC50 on TANK-2 enzyme and at Human PARP-1 enzyme were 500 nM and 34.2 nM, respectively.
Consider `Cc1cc2ccc(C(C)N3CCC(c4ccccc4)CC3)cc2[nH]c1=O` (stereo not shown) [Compound 74], for which the IC50 was 1860 nM at TANK-2 enzyme and 6.46 nM at Human PARP-1 enzyme.
In the same order, the values of `CCc1cc2ccc(CNCC3CCN(c4ncccn4)CC3)cc2[nH]c1=O` [Compound 25] are 1100 nM and 136 nM.
For the molecule `Cc1cc2ccc(C(=O)N3CC=C(c4ccccc4)CC3)cc2[nH]c1=O` [Compound 59], the values for the IC50 at TANK-2 enzyme and on Human PARP-1 enzyme were 818 nM and 129 nM, respectively.
Regarding `CCc1cc2ccc(CN3CCN(c4cccc(Cl)c4)CC3)cc2[nH]c1=O` [Compound 45], the IC50 on TANK-2 enzyme was 1710 nM; at Human PARP-1 enzyme it was 16.3 nM.
In the same order, the values of `CCc1cc2c(OC)cc(CN3CCN(c4ccccc4Cl)CC3)cc2[nH]c1=O` [Compound 71] are 1780 nM and 4.27 nM.
In the same order, the values of `CCc1cc2ccc(CN3CCCC3)cc2[nH]c1=O` [Compound 61] are 4220 nM and 5.36 nM.
On to `CCc1cc2ccc(CN3CCN(CCOC)CC3)cc2[nH]c1=O` [Compound 27], for which the IC50 on TANK-2 enzyme is 3960 nM; on Human PARP-1 enzyme, 65 nM.
Take `Cc1cc2ccc(C(=O)N3CCN(c4ccccc4Cl)CC3)cc2[nH]c1=O` [Compound 60]: the IC50 on TANK-2 enzyme was > 10000 nM; at Human PARP-1 enzyme it was 116 nM.
With `CCc1cc2ccc(CN3C[C@@H]4C[C@H]3CN4c3ccc(Cl)cc3)cc2[nH]c1=O` [Compound 28], the figures for the IC50 at TANK-2 enzyme and on Human PARP-1 enzyme were 650 nM and 34.8 nM, respectively.
In the case of `CCc1cc2ccc(CN3CCN(c4n[nH]c5ccccc45)CC3)cc2[nH]c1=O` [Compound 37], the results for the IC50 on TANK-2 enzyme and at Human PARP-1 enzyme were 232 nM and 5.68 nM, respectively.
